How the values were obtained:
Puccinia recondita = test: Test Example E: Brown rust on wheat; type: in vivo; settings: for Test E control value class: Brown rust on wheat, class of control value
[1] = system: Blumeria graminis f. sp. hordei; test: Test Example D: Powdery mildew on barley; settings: Powdery mildew on barley; class of control value
[2] = system: Colletotrichum orbiculare; test: Test Example H: Anthracnose on cucumber; settings: for Test H control value class: Anthracnose on cucumber (Sagami Hanjiro), 250 ppm spray, 2.5 ml/pot, assessed 6 to 10 days after inoculation; for Test H control value: 250 ppm drug solution sprayed (2.5 ml/pot), cucumber Sagami Hanjiro, 6 to 10 days after inoculation
Protocol: Seeds of a test plant (cucumber variety: Sagami Hanjiro) were planted and cultivated until the first leaf appeared. In the test, the inventive compounds were dissolved into dimethyl sulfoxide-methanol mixture solution (volume ratio: 9/1), and the resultant solutions were diluted with well water to a concentration of 250 ppm to obtain the drug solutions. The drug solutions were sprayed to the test plant (2.5 ml/pot). After the drug solutions dried, a conidial suspension (2-4×10^5 conidia/ml) of Colletotrichum orbiculare was inoculated to the plant by spraying. After the inoculation, the plant was kept in a mist chamber at room temperature of 20 to 23° C. for about 24 hours to promote the onset of disease. The degrees of disease development were investigated 6 to 10 days after the inoculation, and the effectiveness of the drug solutions was evaluated.
(§1) In Test Examples described above, the degrees of disease development were evaluated in increments of 0.05 from 0 (as no incidence of disease) to 3 (as the degree of disease development in an untreated plant group). Further, control values were calculated using the following equation based on the degree of disease development.
(§2) n=Degree of disease development in each treated group
(§3) In the table, H: more than 50% control value, L: 50% or less control value, and nt: not tested.

Botrytis cinerea = test: Test Example B: Gray mold on tomato; settings: for Test B control value class: Gray mold on tomato, class of control value
Protocol: Seeds of a test plant (tomato variety: Oogata Fukuju) were planted and cultivated until three to five first leaves (true leaves) appeared. In the test, the inventive compounds were dissolved into dimethyl sulfoxide-methanol mixture solution (volume ratio: 9/1), and the resultant solutions were diluted with well water to a concentration of 250 ppm to obtain the drug solutions. The drug solutions were sprayed to the test plant (2.5 ml/pot). After the drug solutions dried, a conidial suspension (4-8×10^5 conidia/ml) of Botrytis cinerea was inoculated to the plant by spraying. After the inoculation, the plant was kept in a mist chamber at room temperature of 20 to 23° C. for about 48 hours to promote the onset of disease. The degrees of disease development were investigated 2 to 3 days after the inoculation, and the effectiveness of the drug solutions was evaluated.
as §1, §2, §3

Plasmopara viticola = test: Test Example G: Downy mildew on vine; settings: for Test G control value class: Downy mildew on vine (Neomuscat), 250 ppm spray, 2.5 ml/pot, assessed 7 to 10 days after inoculation; for Test G control value: 250 ppm drug solution sprayed (2.5 ml/pot), grape Neomuscat, 7 to 10 days after inoculation
Phytophthora infestans = test: whole plant or invertebrate; type: in vivo; settings: for Test F control value class: Late blight on tomato, class of control value; for Test F control value: 250 ppm drug solution sprayed on test plant
Magnaporthe grisea = test: whole plant or invertebrate; type: in vivo; settings: for Test A control value class: Blast on rice, class of control value; for Test A control value: 250 ppm drug solution sprayed on test plant
Alternaia brassicicola = test: Test Example C: Alternaria sooty spot on cabbage; type: in vivo; settings: for Test C control value class: Alternaria sooty spot on cabbage, class of control value; for Test C control value: 250 ppm drug solution sprayed on test plant
From the text: Seeds of a test plant (cabbage variety: Shikidori) were planted and cultivated until the cotyledons extended.
<Control Value> Control value=100{1−(n/3)}

[3] = 250 ppm drug solution sprayed on test plant

SMILES: CCn1c(-c2c(F)cc(F)cc2F)c(C(C)(O)C(C)C)cc(Cl)c1=O (racemic) [compound 106]
- Test E control value class (Puccinia recondita): H (more than 50% control value)
- Test D control value class [1]: H (more than 50% control value)
- Test H control value class [2]: H (more than 50% control value)
- Test B control value class (Botrytis cinerea): H (more than 50% control value)
- Test G control value class (Plasmopara viticola): H (more than 50% control value)
- Test F control value class (Phytophthora infestans): H (more than 50% control value)
- Test A control value class (Magnaporthe grisea): H (more than 50% control value)
- Test C control value class (Alternaia brassicicola): H (more than 50% control value)

SMILES: CCn1c(-c2c(F)cc(F)cc2F)c(C(C)(OC)C(C)C)cc(Cl)c1=O (racemic) [compound 107]
- Test E control value class (Puccinia recondita): H (more than 50% control value)
- Test D control value class [1]: H (more than 50% control value)
- Test H control value class [2]: H (more than 50% control value)
- Test B control value class (Botrytis cinerea): H (more than 50% control value)
- Test G control value class (Plasmopara viticola): H (more than 50% control value)
- Test F control value class (Phytophthora infestans): L (50% or less control value)
- Test A control value class (Magnaporthe grisea): H (more than 50% control value)
- Test C control value class (Alternaia brassicicola): H (more than 50% control value)

SMILES: CCn1c(-c2c(F)cc(OC)cc2F)c(C(C)(O)C(C)C)cc(Cl)c1=O (racemic) [compound 108]
- Test E control value class (Puccinia recondita): H (more than 50% control value)
- Test D control value class [1]: H (more than 50% control value)
- Test H control value class [2]: H (more than 50% control value)
- Test B control value class (Botrytis cinerea): H (more than 50% control value)
- Test G control value class (Plasmopara viticola): H (more than 50% control value)
- Test F control value class (Phytophthora infestans): L (50% or less control value)
- Test A control value class (Magnaporthe grisea): H (more than 50% control value)
- Test C control value class (Alternaia brassicicola): H (more than 50% control value)

SMILES: CCn1c(-c2c(F)cc(OC)cc2F)c(C(C)(OC)C(C)C)cc(Cl)c1=O (racemic) [compound 110]
- Test E control value class (Puccinia recondita): H (more than 50% control value)
- Test D control value class [1]: H (more than 50% control value)
- Test H control value class [2]: H (more than 50% control value)
- Test B control value class (Botrytis cinerea): H (more than 50% control value)
- Test G control value class (Plasmopara viticola): H (more than 50% control value)
- Test F control value class (Phytophthora infestans): L (50% or less control value)
- Test A control value class (Magnaporthe grisea): H (more than 50% control value)
- Test C control value class (Alternaia brassicicola): H (more than 50% control value)

SMILES: CCn1c(-c2c(F)cc(F)cc2F)c(C(O)C(C)(C)C)cc(Cl)c1=O (racemic) [compound 163]
- Test E control value class (Puccinia recondita): H (more than 50% control value)
- Test D control value class [1]: H (more than 50% control value)
- Test H control value class [2]: H (more than 50% control value)
- Test B control value class (Botrytis cinerea): H (more than 50% control value)
- Test G control value class (Plasmopara viticola): H (more than 50% control value)
- Test F control value class (Phytophthora infestans): L (50% or less control value)
- Test A control value class (Magnaporthe grisea): H (more than 50% control value)
- Test C control value class (Alternaia brassicicola): H (more than 50% control value)

SMILES: CCn1c(-c2c(F)cc(F)cc2F)c(C(C)(CC(C)C)OC)cc(Cl)c1=O (racemic) [compound 164]
- Test E control value class (Puccinia recondita): H (more than 50% control value)
- Test D control value class [1]: H (more than 50% control value)
- Test H control value class [2]: L (50% or less control value)
- Test B control value class (Botrytis cinerea): H (more than 50% control value)
- Test G control value class (Plasmopara viticola): H (more than 50% control value)
- Test F control value class (Phytophthora infestans): L (50% or less control value)
- Test A control value class (Magnaporthe grisea): H (more than 50% control value)
- Test C control value class (Alternaia brassicicola): H (more than 50% control value)

SMILES: CCn1c(-c2c(F)cc(OC)cc2F)c(C(C)(CC(C)C)OC)cc(Cl)c1=O (racemic) [compound 165]
- Test E control value class (Puccinia recondita): H (more than 50% control value)
- Test D control value class [1]: H (more than 50% control value)
- Test H control value class [2]: H (more than 50% control value)
- Test B control value class (Botrytis cinerea): H (more than 50% control value)
- Test G control value class (Plasmopara viticola): H (more than 50% control value)
- Test F control value class (Phytophthora infestans): L (50% or less control value)
- Test A control value class (Magnaporthe grisea): H (more than 50% control value)
- Test C control value class (Alternaia brassicicola): H (more than 50% control value)

SMILES: CCn1c(-c2c(F)cc(F)cc2F)c(C(C)(F)C(C)C)cc(Cl)c1=O (racemic) [compound 166]
- Test E control value class (Puccinia recondita): H (more than 50% control value)
- Test D control value class [1]: H (more than 50% control value)
- Test H control value class [2]: H (more than 50% control value)
- Test B control value class (Botrytis cinerea): H (more than 50% control value)
- Test G control value class (Plasmopara viticola): H (more than 50% control value)
- Test F control value class (Phytophthora infestans): H (more than 50% control value)
- Test A control value class (Magnaporthe grisea): H (more than 50% control value)
- Test C control value class (Alternaia brassicicola): H (more than 50% control value)

SMILES: CCn1c(-c2c(F)cc(OC)cc2F)c(C(C)(F)C(C)C)cc(Cl)c1=O (racemic) [compound 167]
- Test E control value class (Puccinia recondita): H (more than 50% control value)
- Test D control value class [1]: H (more than 50% control value)
- Test H control value class [2]: H (more than 50% control value)
- Test B control value class (Botrytis cinerea): H (more than 50% control value)
- Test G control value class (Plasmopara viticola): H (more than 50% control value)
- Test F control value class (Phytophthora infestans): H (more than 50% control value)
- Test A control value class (Magnaporthe grisea): H (more than 50% control value)
- Test C control value class (Alternaia brassicicola): H (more than 50% control value)

SMILES: CCn1c(-c2c(F)cc(F)cc2F)c(C(OC)C(C)(C)C)cc(Cl)c1=O (racemic) [compound 168]
- Test E control value class (Puccinia recondita): H (more than 50% control value)
- Test D control value class [1]: H (more than 50% control value)
- Test H control value class [2]: L (50% or less control value)
- Test B control value class (Botrytis cinerea): H (more than 50% control value)
- Test G control value class (Plasmopara viticola): L (50% or less control value)
- Test F control value class (Phytophthora infestans): L (50% or less control value)
- Test A control value class (Magnaporthe grisea): H (more than 50% control value)
- Test C control value class (Alternaia brassicicola): H (more than 50% control value)

SMILES: CCn1c(-c2c(F)cc(OC)cc2F)c(C(OC)C(C)(C)C)cc(Cl)c1=O (racemic) [compound 170]
- Test E control value class (Puccinia recondita): H (more than 50% control value)
- Test D control value class [1]: H (more than 50% control value)
- Test H control value class [2]: H (more than 50% control value)
- Test B control value class (Botrytis cinerea): H (more than 50% control value)
- Test G control value class (Plasmopara viticola): H (more than 50% control value)
- Test F control value class (Phytophthora infestans): H (more than 50% control value)
- Test A control value class (Magnaporthe grisea): H (more than 50% control value)
- Test C control value class (Alternaia brassicicola): H (more than 50% control value)

SMILES: CCn1c(-c2c(F)cc(OC)cc2F)c(C(C)C(C)C)cc(Cl)c1=O (racemic) [compound 171]
- Test E control value class (Puccinia recondita): H (more than 50% control value)
- Test D control value class [1]: H (more than 50% control value)
- Test H control value class [2]: H (more than 50% control value)
- Test B control value class (Botrytis cinerea): H (more than 50% control value)
- Test G control value class (Plasmopara viticola): H (more than 50% control value)
- Test F control value class (Phytophthora infestans): L (50% or less control value)
- Test A control value class (Magnaporthe grisea): H (more than 50% control value)
- Test C control value class (Alternaia brassicicola): H (more than 50% control value)

SMILES: CCn1c(-c2c(F)cc(F)cc2F)c(C(Cl)C(C)(C)C)cc(Cl)c1=O (racemic) [compound 172]
- Test E control value class (Puccinia recondita): H (more than 50% control value)
- Test D control value class [1]: H (more than 50% control value)
- Test H control value class [2]: H (more than 50% control value)
- Test B control value class (Botrytis cinerea): H (more than 50% control value)
- Test G control value class (Plasmopara viticola): H (more than 50% control value)
- Test F control value class (Phytophthora infestans): H (more than 50% control value)
- Test A control value class (Magnaporthe grisea): H (more than 50% control value)
- Test C control value class (Alternaia brassicicola): H (more than 50% control value)

SMILES: CCCc1ccc(=O)n(C)c1-c1ccc(OC)cc1C [compound 425]
- Test H control value [2]: H (more than 50% control value)
- Test G control value (Plasmopara viticola): L (50% or less control value)
- Test F control value (Phytophthora infestans): L (50% or less control value)
- Test A control value (Magnaporthe grisea): H (more than 50% control value)
- Test C control value (Alternaia brassicicola): L (50% or less control value)

SMILES: C=Cc1cc(Cl)c(=O)n(CC)c1-c1c(F)cc(F)cc1F [compound 517]
- Test H control value [2]: H (more than 50% control value)
- Test G control value (Plasmopara viticola): H (more than 50% control value)
- Test F control value (Phytophthora infestans): L (50% or less control value)
- Test A control value (Magnaporthe grisea): L (50% or less control value)
- Test C control value (Alternaia brassicicola): H (more than 50% control value)

SMILES: CCn1c(-c2c(F)cc(F)cc2F)c(C(C)OC)cc(Cl)c1=O (stereo not shown) [compound 519]
- Test E control value (Puccinia recondita; [3]): H (more than 50% control value)
- Test H control value [2]: H (more than 50% control value)
- Test B control value (Botrytis cinerea; [3]): H (more than 50% control value)
- Test G control value (Plasmopara viticola): H (more than 50% control value)
- Test F control value (Phytophthora infestans): L (50% or less control value)
- Test A control value (Magnaporthe grisea): H (more than 50% control value)
- Test C control value (Alternaia brassicicola): H (more than 50% control value)

From patent US11147272B2, “Pyridone compounds and agricultural and horticultural fungicides comprising the same as active ingredients” (MITSUI CHEMICALS AGRO, INC., priority 2017, dated 2021)
